Publication PMC7395068, “The evolution of strategies to minimise the risk of human drug-induced liver injury (DILI) in drug discovery and development” (Archives of Toxicology, 2020)
Like-named read-outs stand apart in the source and are kept apart here. Blank lines part the entries; values can stand above or below the compound they belong to.

Key:
PHH spheroids = conditions: cited from earlier work
[1] = cited from earlier work
HepG2 cells [2] = conditions: cited from earlier work
[3] = read-out: Human plasma Cmax; total plasma Cmax.tot, median of 9 literature references; cited from earlier work
hLiMTs [4] = conditions: cited from earlier work; for hLiMTs ATP <100uM: In vitro Assay, ref Proctor 2017; for hLiMTs/100uM, Proctor (2017): ATP, IC50 threshold 100 µM, ref Proctor et al. 2017
hLiMTs [5] = assay: Combined HCI (HCS) and cellular ATP 3D assay in hLiMTs; conditions: for AC50 / minimal effective concentration: Homo sapiens; for hLiMTs <25x Avg Cmax ATP / hLiMTs <100x Avg Cmaxu ATP: ATP endpoint; for hLiMTs <25x Avg Cmax ATP / hLiMTs <25x Avg Cmax HCS / hLiMTs <25x Avg Cmax All: cut-off <25x Avg Cmax; for hLiMTs <100x Avg Cmaxu ATP / hLiMTs <100x Avg Cmaxu HCS / hLiMTs <100x Avg Cmaxu All: cut-off <100x Avg Cmaxu; for hLiMTs <25x Avg Cmax HCS / hLiMTs <100x Avg Cmaxu HCS: HCS endpoints; for hLiMTs <25x Avg Cmax All: all endpoints (ATP and HCS); for hLiMTs Cmax max All / hLiMTs Cmax min All / hLiMTs <10 uM All / hLiMTs <100x Avg Cmaxu All: all endpoints; for hLiMTs Cmax max All: Cmax max used; for hLiMTs Cmax min All: Cmax min used; for hLiMTs <10 uM All: cut-off <10 uM
HepG2 = system: HepG2; set-up: method as in Albrecht 2019; conditions: In vitro Assay; ref Albrecht 2019; cited from earlier work
[6] = plasma free fraction; cited from earlier work
[7] = cited from earlier work; remark: listed apart in the source
PHH [8] = conditions: cited from earlier work; for PHH/100uM, Proctor (2017): 2D PHH, ATP, IC50 threshold 100 µM, ref Proctor et al. 2017; for PHH ATP <100uM: In vitro Assay, ref Proctor 2017
PHH [9] = conditions: In vitro Assay; ref Albrecht 2019; cited from earlier work
[10] = system: THLE or HepG2 cells, isolated mitochondria, BSEP; conditions: cited from earlier work; for Partition Hybrid HRM Score / Ro2 Hybrid HRM Score: In vitro Assay, ref Aleo 2019; for Partition Hybrid HRM Score ≥4, Aleo (2019) / Partition Hybrid HRM Score ≥8, Aleo (2019) / Rule of Two hybrid HRM Score ≥3, Aleo (2019) / Rule of Two hybrid HRM Score ≥8, Aleo (2019): Modeled in vitro assays (cytotoxicity, mitochondrial dysfunction, BSEP), ref Aleo et al. 2019
[11] = Plasma free fraction (fu) and unbound Cmax (Cmax,u); format: in vitro ADME, human; conditions: unbound plasma Cmax
HepaRG spheroids = assay: Combined HCI (HCS) and cellular ATP 3D assay in HepaRG spheroids; conditions: for HepaRG <25x Avg Cmax ATP / HepaRG <100x Avg Cmaxu ATP: ATP endpoint; for HepaRG <25x Avg Cmax ATP / HepaRG <25x Avg Cmax HCS / HepaRG <25x Avg Cmax All: cut-off <25x Avg Cmax; for HepaRG <100x Avg Cmaxu ATP / HepaRG <100x Avg Cmaxu HCS / HepaRG <100x Avg Cmaxu All: cut-off <100x Avg Cmaxu; for HepaRG <25x Avg Cmax HCS / HepaRG <100x Avg Cmaxu HCS: HCS endpoints; for HepaRG <25x Avg Cmax All: all endpoints (ATP and HCS); for HepaRG Cmax max All / HepaRG Cmax min All / HepaRG <10 uM All / HepaRG <100x Avg Cmaxu All: all endpoints; for HepaRG Cmax max All: Cmax max used; for HepaRG Cmax min All: Cmax min used; for HepaRG <10 uM All: cut-off <10 uM; for AC50 / minimal effective concentration: Homo sapiens; for HepaRG <25x Avg Cmax ATP / HepaRG <100x Avg Cmaxu ATP / HepaRG <25x Avg Cmax HCS / HepaRG <100x Avg Cmaxu HCS / HepaRG <25x Avg Cmax All / HepaRG Cmax max All / HepaRG Cmax min All / HepaRG <10 uM All / HepaRG <100x Avg Cmaxu All / AC50 / minimal effective concentration: HepaRG
[12] = system: isolated mouse liver mitochondria; conditions: In vitro Assay; ref Porceddu 2012; cited from earlier work
[13] = system: HepG2 cells, primary human hepatocytes; conditions: In vitro Assay; ref Garside 2014; cited from earlier work
HepG2 cells [14] = conditions: In vitro Assay; ref Persson 2013; cited from earlier work
[15] = system: THLE-Null and THLE-3A4 cells; conditions: In vitro Assay; ref Gustafsson 2014; cited from earlier work
[16] = Microtissue model structural based (HCI), combined HCS and ATP, MEC < 25 × Cmax.tot cut-off

hLiMTs <25x Avg Cmax ATP (hLiMTs [5]): -ve | hLiMTs <100x Avg Cmaxu ATP (hLiMTs [5]): -ve | hLiMTs <25x Avg Cmax HCS (hLiMTs [5]): -ve | hLiMTs <100x Avg Cmaxu HCS (hLiMTs [5]): -ve | hLiMTs <25x Avg Cmax All (hLiMTs [5]): -ve | hLiMTs Cmax max All (hLiMTs [5]): -ve | hLiMTs Cmax min All (hLiMTs [5]): -ve | hLiMTs <10 uM All (hLiMTs [5]): -ve | hLiMTs <100x Avg Cmaxu All (hLiMTs [5]): -ve | Human plasma Cmax,u [11]: 0.101 µM | HepaRG <25x Avg Cmax ATP (HepaRG spheroids): -ve | HepaRG <100x Avg Cmaxu ATP (HepaRG spheroids): -ve | HepaRG <25x Avg Cmax HCS (HepaRG spheroids): -ve | HepaRG <100x Avg Cmaxu HCS (HepaRG spheroids): -ve | HepaRG <25x Avg Cmax All (HepaRG spheroids): -ve | HepaRG Cmax max All (HepaRG spheroids): -ve | HepaRG Cmax min All (HepaRG spheroids): -ve | HepaRG <10 uM All (HepaRG spheroids): -ve | HepaRG <100x Avg Cmaxu All (HepaRG spheroids): -ve
SMILES: CN(C)CCC(c1ccc(Cl)cc1)c1ccccn1 (stereo not drawn) [chlorpheniramine]
hLiMTs ATP <20 x Cmax (PHH spheroids; In vitro Assay, ref Vorrink 2018): -VE | DILI in vitro assay prediction, Vorrink (2018) (PHH spheroids; PHH spheroids, ATP, 14 days, IC20 < 20 × Cmax.tot, ref Vorrink et al. 2018): -VE | DILI severity category (Chen et al. [2016]) ([1]; LTKB DILIrank category, ref Chen et al. 2016): No | DILI severity category (Chen 2016) ([1]; human DILI classification, LTKB DILIrank, ref Chen et al. 2016): No | DILI severity category ([1]; human DILI severity, ref Chen et al.): No | DILI +VE (5-8), DILI -VE (-4) ([1]; ref Chen 2016): -VE | DILI severity category ([1]; ref Chen 2016): vNo-DILI-Concern | Structural based (HCI) (HepG2 cells [2]; In vitro Assay, ref O'Brien 2006): +VE | DILI in vitro assay prediction, O'Brien (2006) (HepG2 cells [2]; Structural based (HCI), HepG2, ref O'Brien et al. 2006): -VE | Cmax [3]: 0.366 µM | hLiMTs ATP <100uM (hLiMTs [4]): +VE (IC50 threshold of 100 µM) | hLiMTs/100uM, Proctor (2017) (hLiMTs [4]): +VE (IC50 threshold of 100 µM) | AC50 (hLiMTs [5]; read-out: ATP endpoint AC50): 30.9 µM | minimal effective concentration (hLiMTs [5]; read-out: ATP endpoint MEC): 10.7 µM | AC50 (hLiMTs [5]; read-out: HCS endpoint AC50): 98.5 µM | minimal effective concentration (hLiMTs [5]; read-out: HCS endpoint MEC): 66.6 µM | DILI prediction hLiMTs (HCS-MEC) (hLiMTs [5]; [16]): -VE | Cytotoxicity HepG2 48 hrs (HepG2): -VE | fu [6]: 0.277 | Assigned DILI category ([7]; Chen et al. 2016 or literature alignment, ref Chen et al. 2016): 1 | In vivo DILI ([7]; ref Albrecht 2019): -VE | In vivo DILI ([7]; ref Aleo 2019): -VE | In vivo DILI ([7]; ref O'Brien 2006): -VE | In vivo DILI ([7]; ref Proctor 2017): +VE | In vivo DILI ([7]; ref Vorrink 2018): -VE | In vivo DILI ([7]; ref Xu 2008): +VE | PHH/100uM, Proctor (2017) (PHH [8]): -VE | PHH ATP <100uM (PHH [8]): -VE | Cytotoxicity PHH 48 hrs (PHH [9]): -VE | Partition Hybrid HRM Score [10]: -VE | Ro2 Hybrid HRM Score [10]: -VE | Partition Hybrid HRM Score ≥4, Aleo (2019) [10]: -VE | Partition Hybrid HRM Score ≥8, Aleo (2019) [10]: -VE | Rule of Two hybrid HRM Score ≥3, Aleo (2019) [10]: -VE | Rule of Two hybrid HRM Score ≥8, Aleo (2019) [10]: -VE | AC50 (HepaRG spheroids; read-out: ATP endpoint AC50): 129 µM | minimal effective concentration (HepaRG spheroids; read-out: ATP endpoint MEC): 120 µM | AC50 (HepaRG spheroids; read-out: HCS endpoint AC50): 119 µM | minimal effective concentration (HepaRG spheroids; read-out: HCS endpoint MEC): 14.3 µM | DILI prediction HepaRG spheroids (HCS-MEC) (HepaRG spheroids; [16]): -VE

hLiMTs <25x Avg Cmax ATP (hLiMTs [5]): +ve | hLiMTs <100x Avg Cmaxu ATP (hLiMTs [5]): -ve | hLiMTs <25x Avg Cmax HCS (hLiMTs [5]): +ve | hLiMTs <100x Avg Cmaxu HCS (hLiMTs [5]): +ve (<100x Avg Cmaxu) | hLiMTs <25x Avg Cmax All (hLiMTs [5]): +ve | hLiMTs Cmax max All (hLiMTs [5]): +ve | hLiMTs Cmax min All (hLiMTs [5]): +ve | hLiMTs <10 uM All (hLiMTs [5]): -ve | hLiMTs <100x Avg Cmaxu All (hLiMTs [5]): +ve (<100x Avg Cmaxu) | Human plasma Cmax,u [11]: 55.474 µM | HepaRG <25x Avg Cmax ATP (HepaRG spheroids): +ve | HepaRG <100x Avg Cmaxu ATP (HepaRG spheroids): +ve (<100x Avg Cmaxu) | HepaRG <25x Avg Cmax HCS (HepaRG spheroids): +ve | HepaRG <100x Avg Cmaxu HCS (HepaRG spheroids): +ve (<100x Avg Cmaxu) | HepaRG <25x Avg Cmax All (HepaRG spheroids): +ve | HepaRG Cmax max All (HepaRG spheroids): +ve | HepaRG Cmax min All (HepaRG spheroids): +ve | HepaRG <10 uM All (HepaRG spheroids): -ve | HepaRG <100x Avg Cmaxu All (HepaRG spheroids): +ve (<100x Avg Cmaxu)
SMILES: CCCC(CCC)C(=O)O [valproic acid]
in vitro data EC2<=1x Cmax [12]: +VE | in vitro data EC20<=2uM [12]: -VE | Cmax [3]: 693 µM | hLiMTs ATP <100uM (hLiMTs [4]): -VE | hLiMTs/100uM, Proctor (2017) (hLiMTs [4]): -VE | AC50 (hLiMTs [5]; read-out: ATP endpoint AC50): 7080 µM | minimal effective concentration (hLiMTs [5]; read-out: ATP endpoint MEC): 6220 µM | minimal effective concentration (hLiMTs [5]; read-out: HCS endpoint MEC): 1600 µM | Cytotoxicity HepG2 48 hrs (HepG2): +VE | fu [6]: 0.080 | Cluster 1-6 +VE Assay [13]: +VE | Cluser analysis (HepG2 cells [14]): -VE | Structural based (HCI) (HepG2 cells [14]): -VE | THLE-Null [15]: -VE | PHH/100uM, Proctor (2017) (PHH [8]): -VE | PHH ATP <100uM (PHH [8]): -VE | Cytotoxicity PHH 48 hrs (PHH [9]): +VE | Partition Hybrid HRM Score [10]: +VE | Ro2 Hybrid HRM Score [10]: +VE | Partition Hybrid HRM Score ≥4, Aleo (2019) [10]: +VE (Partition Hybrid HRM Score ≥4) | Partition Hybrid HRM Score ≥8, Aleo (2019) [10]: +VE (Partition Hybrid HRM Score ≥8) | Rule of Two hybrid HRM Score ≥3, Aleo (2019) [10]: +VE (Rule of Two hybrid HRM Score ≥3) | Rule of Two hybrid HRM Score ≥8, Aleo (2019) [10]: -VE | AC50 (HepaRG spheroids; read-out: ATP endpoint AC50): 41.3 µM | minimal effective concentration (HepaRG spheroids; read-out: ATP endpoint MEC): 12.3 µM | AC50 (HepaRG spheroids; read-out: HCS endpoint AC50): 148 µM | minimal effective concentration (HepaRG spheroids; read-out: HCS endpoint MEC): 45.6 µM
